Values of other authors in the CATMoS acute toxicity set (Mansouri et al. 2021).
“And” between values parts separate entries of the source, which are not always exact repeats. Identical values can stand only once.

Assay: rat acute oral toxicity
Settings: in vivo

Compound | LD50
CCOP(=S)(OCC)SC(=CC(=O)OC)C(=O)OC | 80 mg/kg
COP(=O)(OC)OC(C)=CC(=O)OCc1ccc(Cl)cc1 | 139 mg/kg
CC(O)C(c1ccc2c(c1)OCO2)N1CCOCC1 (centres undefined) | 2470 mg/kg
CC12CCC(C(Br)C1=O)C2(C)C (centres undefined) | 4450 mg/kg
CCN(N=O)C(C)C | 1100 mg/kg
NS(=O)(=O)c1cc2c(cc1Cl)N=CNS2(=O)=O | 10000 mg/kg
NCCNCCNCCO | 4630 mg/kg
CCO/N=C(\OC(=O)c1ccccc1)c1c(OC)ccc(Cl)c1OC | 15000 mg/kg
CCNc1nc(=O)nc(NC(C)(C)C(=O)O)[nH]1 | 789 mg/kg
CO[C@H]1C=CC2=CCN3CCC4=C(CC(=O)OC4)[C@]23C1 | 510 mg/kg
CC(C(=O)COC(=O)c1ccncc1)c1ccc(-c2ccccc2F)cc1 (centres undefined) | 1170 mg/kg
CC(Oc1ccc(Oc2nc3ccc(Cl)cc3o2)cc1)C(=O)O (centres undefined) | 2360 mg/kg
COc1ccc(SC#N)c([N+](=O)[O-])c1 | 3540 mg/kg
CC1NC(=O)c2ccccc2O1 (centres undefined) | 1020 mg/kg
C=C(C)C1CC=C(C)C(O)C1 (centres undefined) | 3000 mg/kg
COC(=O)N/N=C/c1c[n+]([O-])c2ccccc2[n+]1[O-] | 850 mg/kg
CC(C)N=C1SC(=NOC(=O)N(C)SN(C)C(=O)ON=C2SC(=NC(C)C)SC2(C)C)C(C)(C)S1 | 113 mg/kg
N#Cc1cc([N+](=O)[O-])ccc1N | 3880 mg/kg
Cc1oc(=O)oc1COC(=O)[C@@H]1N2C(=O)[C@@H](NC(=O)[C@H](N)c3ccccc3)[C@H]2SC1(C)C | 10000 mg/kg
CCCOC=O | 3980 mg/kg

Compound | LD50
FC(F)(F)c1ccc(Cl)cc1Cl | 2150 mg/kg
O=C(C=Cc1ccccc1)OCC=Cc1ccccc1 | 4200 mg/kg
O=C(Cc1ccccc1)OC1=C(OC(=O)Cc2ccccc2)C(=O)OC1=O | 8000 mg/kg
FCCBr | 5 mg/kg
CNCCCC1c2ccccc2C=Cc2ccccc21 | 299 mg/kg and 240 mg/kg
CCCC(=O)C(CC)Cc1ccccc1 (centres undefined) | 4400 mg/kg
O=c1c(F)cn(C2CCCO2)c(=O)n1C1CCCO1 (centres undefined) | 1730 mg/kg
N#Cc1sc2c(=O)c3ccccc3c(=O)c=2sc1C#N | 638 mg/kg
CCCN(CCC)c1c([N+](=O)[O-])cc(C(F)(F)F)c(N)c1[N+](=O)[O-] | 15400 mg/kg
CCCCOCC(C)OCC(C)OCC(C)O (centres undefined) | 1840 mg/kg
O=C1CCc2cc(C(=O)CCCN3CC=C(c4ccccc4)CC3)ccc2N1 | 500 mg/kg
COC(=O)C[N+](=O)[O-] | 3770 mg/kg
CCCCOC(C)OCCCC | 8790 mg/kg
COc1cc(OC)c(C(=O)CCCN2CCCC2)c(OC)c1 | 410 mg/kg
Cc1ncc(CSCc2cnc(C)c(O)c2CO)c(CO)c1O | 7500 mg/kg
O=C(O)CONC(=O)c1ccccc1 | 2500 mg/kg
CC(C(=O)O)c1ccc2c(c1)Cc1cccnc1O2 (centres undefined) | 59.5 mg/kg
CCOC(=S)C=Cc1ccc(OC)c(OC)c1 | 980 mg/kg
CCOC(=O)c1ccc([N+](=O)[O-])cc1 | 2660 mg/kg
C=C(C)C1CCC(C)(OP(=S)(OC)OC)CC1 (centres undefined) | 500 mg/kg

Compound | LD50
Cc1ccc2[nH]c(=S)[nH]c2c1 | 340 mg/kg
BrC/C=C/CBr | 62 mg/kg
CCCCCCCCSCCO | 8530 mg/kg
CCOC(C(=O)N(C)CCN(C)C)(c1ccccc1)c1ccccc1 | 565 mg/kg
N#CCC[P+](CCC#N)(CCC#N)CC[P+](CCC#N)(CCC#N)CCC#N | 10000 mg/kg
CC(C)(C)N | 96 mg/kg
OCCNC1CCCCC1 | 38300 mg/kg
CC(=O)OCC[N+](C)(C)C | 2500 mg/kg
COc1cccc(C(=O)NC2CC3CCC(C2)N3Cc2ccccc2)c1OC (centres undefined) | 147 mg/kg
CN(C)C(=O)Oc1ccccc1C1SCCS1 | 16 mg/kg
COC(=O)Cc1cccc2ccccc12 | 1900 mg/kg
CCC1(CC)Oc2cccc(OC(=O)NC)c2O1 | 46 mg/kg
COc1ccc(S(=O)(=O)Nc2nnc(CC(C)C)s2)cc1 | 534 mg/kg
Cc1cc(Cl)ccc1OCC(=O)OCCCCCC(C)C | 700 mg/kg
CNC(=O)c1cc(OC)n(-c2cccc(Cl)c2)n1 | 1540 mg/kg
CCCCC(CC)COCCC(=O)O (centres undefined) | 3730 mg/kg
CCCCCC(C)(O)CC (centres undefined) | 3400 mg/kg
CC1C(C)(C)C2=C(c3ncncc3CC2)C1(C)C (centres undefined) | 500 mg/kg
NC1CCS(=O)(=O)C1 (centres undefined) | 17900 mg/kg
